Test results reported in patent US10472333B2, “P2X4 receptor antagonist” (NIPPON CHEMIPHAR CO., LTD., priority 2013, dated 2019).

How the values were obtained:
human P2X4 receptor = target: T1, human P2X4 receptor (Homo sapiens, UniProt Q99571); experiment: P2X4 receptor antagonist activity, ATP-induced intracellular calcium (Fura-2 AM) in 1321N1 cells stably expressing human P2X4 receptor; assay type: cell-based; conditions: among human, mouse, and rat
T1 sequence (Q99571 1-388): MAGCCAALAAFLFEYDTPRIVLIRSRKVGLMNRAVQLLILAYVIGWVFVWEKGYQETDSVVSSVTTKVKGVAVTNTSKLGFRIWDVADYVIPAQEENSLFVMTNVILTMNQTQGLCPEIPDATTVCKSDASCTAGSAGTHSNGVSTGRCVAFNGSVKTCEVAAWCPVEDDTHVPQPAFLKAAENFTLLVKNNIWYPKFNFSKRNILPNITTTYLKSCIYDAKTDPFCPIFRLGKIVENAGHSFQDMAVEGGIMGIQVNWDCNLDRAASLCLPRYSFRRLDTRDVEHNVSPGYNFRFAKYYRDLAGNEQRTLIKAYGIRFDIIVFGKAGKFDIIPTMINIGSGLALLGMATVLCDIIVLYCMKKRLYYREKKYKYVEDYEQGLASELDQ

Mouse P2X4 = target: T2, Mouse P2X4 (Mus musculus, UniProt Q9JJX6); experiment: P2X receptor family selectivity, calcium imaging method using cells expressing the receptor; assay type: cell-based
T2 construct: host or cells: cells expressing the receptor
T2 sequence (Q9JJX6 1-388): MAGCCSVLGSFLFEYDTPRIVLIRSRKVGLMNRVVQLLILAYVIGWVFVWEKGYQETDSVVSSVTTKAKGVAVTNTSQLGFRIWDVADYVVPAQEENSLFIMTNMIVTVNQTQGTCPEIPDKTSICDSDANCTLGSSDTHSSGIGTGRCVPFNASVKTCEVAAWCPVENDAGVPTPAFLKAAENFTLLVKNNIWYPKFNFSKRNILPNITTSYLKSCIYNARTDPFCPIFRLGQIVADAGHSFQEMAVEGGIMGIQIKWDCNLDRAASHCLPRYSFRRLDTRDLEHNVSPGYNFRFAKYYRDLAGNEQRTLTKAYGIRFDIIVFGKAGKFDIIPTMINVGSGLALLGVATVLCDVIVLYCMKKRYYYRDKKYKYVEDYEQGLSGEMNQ
Source text: (§1) The inhibitory activities of the compound against the rat and mouse P2X4 receptors were also confirmed.

Rat P2X4 = target: T3, Rat P2X4 (Rattus norvegicus, UniProt P51577); experiment: as above; assay type: cell-based
T3 construct: host or cells: cells expressing the receptor
T3 sequence (P51577 1-388): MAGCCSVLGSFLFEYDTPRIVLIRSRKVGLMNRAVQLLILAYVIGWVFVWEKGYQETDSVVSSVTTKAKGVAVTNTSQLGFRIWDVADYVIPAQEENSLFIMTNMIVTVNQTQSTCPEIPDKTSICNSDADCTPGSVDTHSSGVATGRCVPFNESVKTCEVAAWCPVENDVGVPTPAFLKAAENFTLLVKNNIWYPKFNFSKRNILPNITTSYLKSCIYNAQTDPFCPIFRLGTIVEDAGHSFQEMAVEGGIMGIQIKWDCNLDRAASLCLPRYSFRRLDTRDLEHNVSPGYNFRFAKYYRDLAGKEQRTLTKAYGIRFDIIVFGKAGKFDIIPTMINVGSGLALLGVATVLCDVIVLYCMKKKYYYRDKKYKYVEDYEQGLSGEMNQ
Source text: as §1

Rat P2X3 = target: T4, Rat P2X3 (Rattus norvegicus, UniProt P49654); experiment: as above; assay type: cell-based
T4 construct: host or cells: cells expressing the receptor
T4 sequence (P49654 1-397): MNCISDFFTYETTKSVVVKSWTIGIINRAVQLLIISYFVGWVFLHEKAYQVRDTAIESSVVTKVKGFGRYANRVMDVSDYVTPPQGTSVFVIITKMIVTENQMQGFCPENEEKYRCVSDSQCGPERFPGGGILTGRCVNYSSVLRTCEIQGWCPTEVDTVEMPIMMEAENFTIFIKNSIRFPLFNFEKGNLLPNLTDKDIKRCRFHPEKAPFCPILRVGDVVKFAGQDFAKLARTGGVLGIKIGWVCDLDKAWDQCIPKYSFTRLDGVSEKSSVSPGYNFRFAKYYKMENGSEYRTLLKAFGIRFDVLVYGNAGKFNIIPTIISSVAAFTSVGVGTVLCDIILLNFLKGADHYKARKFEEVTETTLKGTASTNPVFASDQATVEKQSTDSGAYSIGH

Rat P2X7 = target: T5, Rat P2X7 (Rattus norvegicus, UniProt Q64663); experiment: as above; assay type: cell-based
T5 construct: host or cells: cells expressing the receptor
T5 sequence (Q64663 1-595): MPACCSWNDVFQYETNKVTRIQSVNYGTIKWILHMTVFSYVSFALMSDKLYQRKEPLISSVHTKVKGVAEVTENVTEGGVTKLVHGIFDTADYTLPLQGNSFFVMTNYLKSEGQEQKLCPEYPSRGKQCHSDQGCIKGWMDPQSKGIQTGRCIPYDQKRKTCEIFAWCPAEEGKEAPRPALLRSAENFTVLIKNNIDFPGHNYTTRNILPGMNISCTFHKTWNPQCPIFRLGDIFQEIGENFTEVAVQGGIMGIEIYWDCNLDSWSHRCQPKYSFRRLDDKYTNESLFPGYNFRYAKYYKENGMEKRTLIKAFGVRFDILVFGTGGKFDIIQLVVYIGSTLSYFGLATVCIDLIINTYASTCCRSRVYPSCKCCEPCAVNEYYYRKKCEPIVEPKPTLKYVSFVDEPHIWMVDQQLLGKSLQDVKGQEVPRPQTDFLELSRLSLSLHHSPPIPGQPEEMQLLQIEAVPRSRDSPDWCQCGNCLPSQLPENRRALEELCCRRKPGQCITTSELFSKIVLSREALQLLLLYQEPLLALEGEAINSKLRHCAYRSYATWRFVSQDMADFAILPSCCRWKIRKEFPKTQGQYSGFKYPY

Human P2X7 = target: T6, Human P2X7 (Homo sapiens, UniProt Q99572); experiment: as above; assay type: cell-based
T6 construct: host or cells: cells expressing the receptor
T6 sequence (Q99572 1-595): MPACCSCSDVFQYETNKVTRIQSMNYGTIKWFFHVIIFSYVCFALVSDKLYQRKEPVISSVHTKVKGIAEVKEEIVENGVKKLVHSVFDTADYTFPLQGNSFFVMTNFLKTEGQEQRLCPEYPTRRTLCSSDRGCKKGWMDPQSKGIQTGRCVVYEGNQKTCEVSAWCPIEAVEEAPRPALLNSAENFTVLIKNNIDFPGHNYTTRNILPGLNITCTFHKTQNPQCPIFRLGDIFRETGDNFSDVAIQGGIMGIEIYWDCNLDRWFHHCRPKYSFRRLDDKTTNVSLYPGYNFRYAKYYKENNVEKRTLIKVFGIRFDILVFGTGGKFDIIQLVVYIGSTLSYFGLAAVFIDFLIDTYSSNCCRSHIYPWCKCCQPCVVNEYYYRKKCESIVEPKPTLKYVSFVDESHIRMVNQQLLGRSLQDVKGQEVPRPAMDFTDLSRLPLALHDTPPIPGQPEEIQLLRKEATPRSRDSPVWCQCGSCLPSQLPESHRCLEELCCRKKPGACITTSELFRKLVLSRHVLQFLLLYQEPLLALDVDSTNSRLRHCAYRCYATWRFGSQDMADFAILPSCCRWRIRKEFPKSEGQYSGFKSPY

[1] = tested on: rat neuropathic pain model (modified Chung model); experiment: Analgesic activity, rat neuropathic pain model (modified Chung model), von Frey filament test; assay type: in vivo
Method: The analgesic activity of the compound of the present invention was measured by the following method.
Rat neuropathic pain model (modified Chung model) was prepared according to the method of Kim, S. H., Chung, J. M. et al. (An experimental model for peripheral neuropathy produced by segmental spinal nerve ligation in the rat, Pain, 50, 355-363 (1992)). More specifically; under isoflurane anesthesia, back hair of rats was extensively shaved, the shaved parts were wiped with rubbing alcohol, the rats were fixed in the prone position on a heating pad, and the skins were cut and opened along the dorsal median line on the upper and lower sides of the sacroiliac bone. The left lateral paravertebral muscle was separated in the sacral region, and then the ligament was separated. […]
The pain threshold (paw withdrawal threshold (g)) was measured by stimulating the soles of rats with each of seven von Frey filaments (Stoelting Co., TOUCH-TEST SENSORY EVALUATOR) that gave different stimulation strengths, and determining presence or absence of withdrawal response. The 50% threshold was calculated according to the up down method with reference to the method of Chaplan et al. (Chaplan S R, Bach F W, Pogrel J W, Chung J M, Yaksh T L: Quantitative assessment of tactile allodynia in the rat paw, J. Neurosci. Method, 53:55-63 (1994)). […]

## CN(C)c1ncccc1C(=O)Nc1ccc(C2=NCC(=O)Nc3c2ccc2ccccc32)cc1.Cl.Cl [Example 15, 2-(Dimethylamino)-N-[4-(2-oxo-2,3-dihydro-1H-naphtho[1,2-e][1,4]diazepin-5-yl)phenyl]nicotinamide dihydrochloride]
Human P2X4 receptor
  Species-specific difference of the P2X4 receptor inhibitory activity: not observed
Mouse P2X4
  IC50: 0.52 µM
Rat P2X4
  IC50: 1.3 µM
Rat P2X3
  IC50: 6.8 µM
Rat P2X7
  IC50: > 30 µM
Human P2X7
  IC50: > 30 µM
[1]; rat modified Chung model, 30 mg/kg orally twice a day (60 mg/kg/day) for 14 days from day 9 after operation, measured 3 hours after administration, vs. vehicle group
  pain threshold of the affected limb (von Frey filament test): increased
[1]; rat neuropathic pain model (modified Chung model)
  analgesic activity: superior analgesic activity
